Results taken from PubChem BioAssay AID1963834 (Molecular Pharmacology Branch, DTP, NCI, 2024).

Tested on: 873145-292-R-J1-PDC complex spheroid viability
Experiment: Anticancer human tumor 873145-292-R-J1-PDC patient-derived renal clear cell carcinoma cell line growth inhibition [POLQ]
Conditions: for IC50: curve of first compound; for viability, T/C: stronger effect = lower value
Procedure, shortened: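 Three-cell-type spheroids modelling solid tumor plus stroma served as the readout system; POL inhibitors were tested individually and in combination, concentration ranges set by clinical Cmax where known.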

[1] = second compound 0.0316 µM, first compound 0.0316 µM
[2] = second compound 0.0316 µM, first compound 0.1 µM
[3] = second compound 0.0316 µM, first compound 0.316 µM
[4] = second compound 0.0316 µM, first compound 1 µM
[5] = second compound 0.0316 µM, first compound 3.16 µM
[6] = second compound 0.0316 µM, first compound 10 µM
[7] = second compound 0.1 µM, first compound 0.0316 µM
[8] = second compound 0.1 µM, first compound 0.1 µM
[9] = second compound 0.1 µM, first compound 0.316 µM
[10] = second compound 0.1 µM, first compound 1 µM
[11] = second compound 0.1 µM, first compound 3.16 µM
[12] = second compound 0.1 µM, first compound 10 µM
[13] = second compound 0.316 µM, first compound 0.0316 µM
[14] = second compound 0.316 µM, first compound 0.1 µM
[15] = second compound 0.316 µM, first compound 0.316 µM
[16] = second compound 0.316 µM, first compound 1 µM
[17] = second compound 0.316 µM, first compound 3.16 µM
[18] = second compound 0.316 µM, first compound 10 µM
[19] = second compound 1 µM, first compound 0.0316 µM
[20] = second compound 1 µM, first compound 0.1 µM
[21] = second compound 1 µM, first compound 0.316 µM
[22] = second compound 1 µM, first compound 1 µM
[23] = second compound 1 µM, first compound 3.16 µM
[24] = second compound 1 µM, first compound 10 µM
[25] = second compound 3.16 µM, first compound 0.0316 µM
[26] = second compound 3.16 µM, first compound 0.1 µM
[27] = second compound 3.16 µM, first compound 0.316 µM
[28] = second compound 3.16 µM, first compound 1 µM
[29] = second compound 3.16 µM, first compound 3.16 µM
[30] = second compound 3.16 µM, first compound 10 µM
[31] = second compound 10 µM, first compound 0.0316 µM
[32] = second compound 10 µM, first compound 0.1 µM
[33] = second compound 10 µM, first compound 0.316 µM
[34] = second compound 10 µM, first compound 1 µM
[35] = second compound 10 µM, first compound 3.16 µM
[36] = second compound 10 µM, first compound 10 µM
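Further: spheroids exposed to compounds for 7 days before viability readout.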
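Wherever viability, T/C is given: luminescence signal used as surrogate for viable cell content; 100% = DMSO vehicle control viability.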

**Q.** What does the source list for `CC1COCCN1c1cc(C2(O)CC3CCC(C2)O3)c2cnn(-c3ccn[nH]3)c2n1` (centres undefined) + COC1C(OC(N)=O)C(O)C(Oc2ccc3c(O)c(NC(=O)c4ccc(O)c(CC=C(C)C)c4)c(=O)oc3c2C)OC1(C)C?
**A.** IC50 (second compound 0.0316 µM): 0.423 µM; IC50 (second compound 0.1 µM): 0.562 µM; IC50 (second compound 0.316 µM): 0.311 µM; IC50 (second compound 1 µM): 0.484 µM; IC50 (second compound 3.16 µM): 0.362 µM; IC50 (second compound 10 µM): 0.691 µM; viability, T/C [1]: 90.3%; viability, T/C [2]: 71.8%; viability, T/C [3]: 53.9%; viability, T/C [4]: 40.4%; viability, T/C [5]: 38.6%; viability, T/C [6]: 37.2%; viability, T/C [7]: 85.8%; viability, T/C [8]: 67.2%; viability, T/C [9]: 57.1%; viability, T/C [10]: 43.6%; viability, T/C [11]: 39.3%; viability, T/C [12]: 38.5%; viability, T/C [13]: 86.3%; viability, T/C [14]: 72.9%; viability, T/C [15]: 50.2%; viability, T/C [16]: 40.2%; viability, T/C [17]: 49.5%; viability, T/C [18]: 37.7%; viability, T/C [19]: 84.3%; viability, T/C [20]: 68.6%; viability, T/C [21]: 58.5%; viability, T/C [22]: 38.9%; viability, T/C [23]: 36.3%; viability, T/C [24]: 37%; viability, T/C [25]: 93.8%; viability, T/C [26]: 73.5%; viability, T/C [27]: 52.9%; viability, T/C [28]: 38.3%; viability, T/C [29]: 36.2%; viability, T/C [30]: 38.5%; viability, T/C [31]: 87.7%; viability, T/C [32]: 71.9%; viability, T/C [33]: 58.3%; viability, T/C [34]: 45.6%; viability, T/C [35]: 41.6%; viability, T/C [36]: 40.9%

**Q.** What does the source list for `CCc1cc2c(N3CCc4c(cc(Cn5ccnc5)cc4-c4cn(C)nc4C(F)(F)F)C3=O)cc(C)nc2c(OC)n1` + COC1C(OC(N)=O)C(O)C(Oc2ccc3c(O)c(NC(=O)c4ccc(O)c(CC=C(C)C)c4)c(=O)oc3c2C)OC1(C)C?
**A.** IC50 (second compound 0.0316 µM): > 10 µM; IC50 (second compound 0.1 µM): > 10 µM; IC50 (second compound 0.316 µM): > 10 µM; IC50 (second compound 1 µM): > 10 µM; IC50 (second compound 3.16 µM): > 10 µM; IC50 (second compound 10 µM): > 10 µM; viability, T/C [1]: 96%; viability, T/C [2]: 98.1%; viability, T/C [3]: 93.6%; viability, T/C [4]: 99.2%; viability, T/C [5]: 86.6%; viability, T/C [6]: 83%; viability, T/C [7]: 92.5%; viability, T/C [8]: 105%; viability, T/C [9]: 96.4%; viability, T/C [10]: 88.5%; viability, T/C [11]: 90.4%; viability, T/C [12]: 79.8%; viability, T/C [13]: 113%; viability, T/C [14]: 97.5%; viability, T/C [15]: 94.3%; viability, T/C [16]: 90.8%; viability, T/C [17]: 89.2%; viability, T/C [18]: 83.3%; viability, T/C [19]: 99.4%; viability, T/C [20]: 106%; viability, T/C [21]: 78.8%; viability, T/C [22]: 84.7%; viability, T/C [23]: 83.6%; viability, T/C [24]: 84.2%; viability, T/C [25]: 99.6%; viability, T/C [26]: 93%; viability, T/C [27]: 99.8%; viability, T/C [28]: 82.7%; viability, T/C [29]: 77.5%; viability, T/C [30]: 74%; viability, T/C [31]: 88.1%; viability, T/C [32]: 82.8%; viability, T/C [33]: 101%; viability, T/C [34]: 77.7%; viability, T/C [35]: 92.6%; viability, T/C [36]: 96.2%
